Key:
[1] = system: T cells from the spleen of C3H/HeJ mice; experiment: Induction of IL-2 production in ConA-activated spleen T cells; supernatants tested for growth of IL-2-dependent CTLL-2 cells; format: cell-based; settings: supernatants of splenocytes incubated 48 hours with ConA and substance, dilution 1/10
Experimental: For the purpose of establishing whether the activity of costimulation of the murine thymocytes on the part of the synthetic peptide is due, as in the case of human IL-1, to the induction of the production of IL-2, the following test was carried out.
T cells from the spleen of C3H/HeJ mice, separated on nylon wool as reported by Julius, M. H. et al., Eur. J. Immunol. 3, 645 (1973), are incubated in duplicate for 48 hours at 37° C. in 1 ml of RPMI 1640 medium (GIBCO), supplemented by N-2-hydroxyethylpiperazine N'-2-ethanesulphonic acid (HEPES), L-glutamine, gentamycin, 10% bovine foetal serum and 2-mercaptoethanol (2.5×10^-5 M), in the presence of graduated concentrations (840-420-210 μg/ml) of the synthetic peptide 163-171 and of purified human IL-1B as standard, with the addition of concanavalin A (ConA) as costimulant.
At the end of the period of incubation, the supernatant is separated from the culture and a determination is made of its capacity to promote the growth of CTLL-2 cells dependent upon IL-2 according to the method reported by Gillis S. M. et al. (J. Immunol. 120, 2027 (1978)).
The mitogenic activity of IL-2 on CTLL-2 cells is measured, either by determining the number of cells after 24 hours of culturing or by means of the assessment of the incorporation of tritiated thymidine in the cells. […]

CTLL-2 cells = experiment: Substances tested directly on IL-2-dependent CTLL cells (no splenocyte supernatant; upper part of Table 2); format: cell-based; settings: dilution 1/10

Human IL-1β: purified human IL-1B standard (Genzyme Boston Mass.)
IL-2 (mU/ml) [1]: 38 mU/ml | Stimulation index + SE of CTLL cells [1]: 15.27 ± 0.88 | IL-2 (mU/ml) (CTLL-2 cells): 1 mU/ml | Stimulation index + SE of CTLL cells (CTLL-2 cells): 0.93 ± 0.02

— patent US4774320A, “Synthetic peptide with human interleukin 1 activity” (Sclavo S.p.A., priority 1986, dated 1988)
